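Protocol summary: plate cells (96-well), add compound at 5 concentrations, incubate 48 h, interpolate endpoints linearly. Abbreviation: GI50, concentration required for 50% inhibition of growth. TGI marks complete inhibition of growth.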

This passage reports TGI and GI50 results from PubChem BioAssay (NCI).

The test system of one experiment is SK-MEL-28 melanoma. Kind of experiment: NCI tumour cell line growth inhibition, 48 h.
`Cc1n(CC(C)C)c2c([n+]1C)C(=O)c1ccccc1C2=O` came in with a TGI of 2.98 µM.
`CN(C)/C=C/C(=CC=[N+](C)C)/C=C/N(C)C`: the TGI was above 100 µM.
The same measure, in the same setting: the figure for `N#C[S-].[La+3].c1cnc2c(c1)ccc1cccnc12.c1cnc2c(c1)ccc1cccnc12.c1cnc2c(c1)ccc1cccnc12` is 33.9 µM; for `O=S(Cc1ccccc1)c1nc2ccccc2nc1-c1cccs1` (stereo unspecified) it is 23.9 µM; for `Cc1ccc2c(ccc(/C=C/c3ccc(O)c4ncccc34)[n+]2C)c1` it is 33.1 µM.
The same measure, in the same setting: the figure for `CCC(CC)NC1=C(NC(C)=O)C(=O)c2ccccc2C1=O` is above 50 µM; for `CS(=O)(=O)C(C#N)c1nc2ccccc2nc1Cl` (stereo unspecified) it is above 100 µM.

The test system of the next experiment is BT-549 breast. Kind of experiment: NCI tumour cell line growth inhibition, 48 h.
For `Cc1n(CC(C)C)c2c([n+]1C)C(=O)c1ccccc1C2=O`, the TGI came out at 0.61 µM.
`Cc1ccc2c(ccc(/C=C/c3ccc(O)c4ncccc34)[n+]2C)c1`: the TGI was above 29 µM.
`CS(=O)(=O)C(C#N)c1nc2ccccc2nc1Cl` (stereo unspecified) had a TGI above 100 µM.

A further experiment deals with A549 NSCLC. Kind of experiment: NCI tumour cell line growth inhibition, 48 h.
As to `Cc1n(CC(C)C)c2c([n+]1C)C(=O)c1ccccc1C2=O`, the TGI was determined as 1.34 µM.
With `CN(C)/C=C/C(=CC=[N+](C)C)/C=C/N(C)C`, the TGI is above 100 µM.
Still for that read-out and setting: the figure for `N#C[S-].[La+3].c1cnc2c(c1)ccc1cccnc12.c1cnc2c(c1)ccc1cccnc12.c1cnc2c(c1)ccc1cccnc12` is 10.6 µM; for `O=S(Cc1ccccc1)c1nc2ccccc2nc1-c1cccs1` (stereo unspecified) it is 30.7 µM.
The same measure, in the same setting: the figure for `Cc1ccc2c(ccc(/C=C/c3ccc(O)c4ncccc34)[n+]2C)c1` is 44.1 µM; for `CCC(CC)NC1=C(NC(C)=O)C(=O)c2ccccc2C1=O` it is above 50 µM; for `CS(=O)(=O)C(C#N)c1nc2ccccc2nc1Cl` (stereo unspecified) it is above 100 µM.

The next experiment deals with RPMI-8226 leukemia. Description: NCI tumour cell line growth inhibition, 48 h.
In the case of `Cc1n(CC(C)C)c2c([n+]1C)C(=O)c1ccccc1C2=O`, the TGI came out at 8.37 µM.
On the same count and under the same terms, for `CN(C)/C=C/C(=CC=[N+](C)C)/C=C/N(C)C` the value was above 100 µM; for `N#C[S-].[La+3].c1cnc2c(c1)ccc1cccnc12.c1cnc2c(c1)ccc1cccnc12.c1cnc2c(c1)ccc1cccnc12`, above 100 µM.
As to `O=S(Cc1ccccc1)c1nc2ccccc2nc1-c1cccs1` (stereo unspecified), the TGI was 68 µM.
The same measure, in the same setting: the figure for `Cc1ccc2c(ccc(/C=C/c3ccc(O)c4ncccc34)[n+]2C)c1` is 70.2 µM; for `CS(=O)(=O)C(C#N)c1nc2ccccc2nc1Cl` (stereo unspecified) it is above 100 µM.

In a further experiment the test system is NCI-H23 lung. Description: NCI tumour cell line growth inhibition, 48 h.
Take `Cc1n(CC(C)C)c2c([n+]1C)C(=O)c1ccccc1C2=O`: the TGI amounted to 0.107 µM.
Still for that read-out and setting: for `CN(C)/C=C/C(=CC=[N+](C)C)/C=C/N(C)C` the value was above 100 µM; for `N#C[S-].[La+3].c1cnc2c(c1)ccc1cccnc12.c1cnc2c(c1)ccc1cccnc12.c1cnc2c(c1)ccc1cccnc12`, 22.2 µM.
Still for that read-out and setting: the figure for `O=S(Cc1ccccc1)c1nc2ccccc2nc1-c1cccs1` (stereo unspecified) is 33.8 µM; for `Cc1ccc2c(ccc(/C=C/c3ccc(O)c4ncccc34)[n+]2C)c1` it is 40.7 µM.
Same read-out and setting: for `CCC(CC)NC1=C(NC(C)=O)C(=O)c2ccccc2C1=O` the value was above 50 µM; for `CS(=O)(=O)C(C#N)c1nc2ccccc2nc1Cl` (stereo unspecified), above 100 µM.

For the next experiment, the system named is DU-145 prostate. Description: NCI tumour cell line growth inhibition, 48 h.
The compound `Cc1n(CC(C)C)c2c([n+]1C)C(=O)c1ccccc1C2=O` had a TGI of 0.41 µM.
Same read-out and setting: for `Cc1ccc2c(ccc(/C=C/c3ccc(O)c4ncccc34)[n+]2C)c1` the value was above 57.3 µM.
Still for that read-out and setting: for `CS(=O)(=O)C(C#N)c1nc2ccccc2nc1Cl` (stereo unspecified) the value was above 100 µM.

Another experiment relates to SNB-78 CNS. Description: NCI tumour cell line growth inhibition, 48 h.
The compound `Cc1n(CC(C)C)c2c([n+]1C)C(=O)c1ccccc1C2=O` had a TGI of 3.48 µM.
As for `CN(C)/C=C/C(=CC=[N+](C)C)/C=C/N(C)C`, the TGI is above 100 µM.
The same measure, in the same setting: for `O=S(Cc1ccccc1)c1nc2ccccc2nc1-c1cccs1` (stereo unspecified) the value was 56.2 µM; for `Cc1ccc2c(ccc(/C=C/c3ccc(O)c4ncccc34)[n+]2C)c1`, 27.5 µM.
For `CCC(CC)NC1=C(NC(C)=O)C(=O)c2ccccc2C1=O`, the TGI is above 50 µM.
On the same count and under the same terms, the figure for `CS(=O)(=O)C(C#N)c1nc2ccccc2nc1Cl` (stereo unspecified) is above 100 µM.

The subject of another experiment is XF 498 CNS. Description: NCI tumour cell line growth inhibition, 48 h.
Compound `Cc1n(CC(C)C)c2c([n+]1C)C(=O)c1ccccc1C2=O` displayed a TGI of 1.46 µM.
Same read-out and setting: the figure for `CN(C)/C=C/C(=CC=[N+](C)C)/C=C/N(C)C` is above 100 µM.
As for `N#C[S-].[La+3].c1cnc2c(c1)ccc1cccnc12.c1cnc2c(c1)ccc1cccnc12.c1cnc2c(c1)ccc1cccnc12`, the GI50 was 4.03 µM and the TGI is 9.42 µM.
The compound `O=S(Cc1ccccc1)c1nc2ccccc2nc1-c1cccs1` (stereo unspecified) yielded a TGI of 12.3 µM.
The compound `Cc1ccc2c(ccc(/C=C/c3ccc(O)c4ncccc34)[n+]2C)c1` returned a TGI of 16.8 µM.
On the same count and under the same terms, for `CCC(CC)NC1=C(NC(C)=O)C(=O)c2ccccc2C1=O` the value was above 50 µM; for `CS(=O)(=O)C(C#N)c1nc2ccccc2nc1Cl` (stereo unspecified), above 100 µM.

A further experiment deals with IGROV1 ovarian. Description: NCI tumour cell line growth inhibition, 48 h.
Regarding `Cc1n(CC(C)C)c2c([n+]1C)C(=O)c1ccccc1C2=O`, the TGI was found to be 0.101 µM.
The compound `CN(C)/C=C/C(=CC=[N+](C)C)/C=C/N(C)C` yielded a TGI above 100 µM.
The same measure, in the same setting: the figure for `N#C[S-].[La+3].c1cnc2c(c1)ccc1cccnc12.c1cnc2c(c1)ccc1cccnc12.c1cnc2c(c1)ccc1cccnc12` is 19.2 µM; for `O=S(Cc1ccccc1)c1nc2ccccc2nc1-c1cccs1` (stereo unspecified) it is 29.2 µM.
Same read-out and setting: for `Cc1ccc2c(ccc(/C=C/c3ccc(O)c4ncccc34)[n+]2C)c1` the value was 45.6 µM.
The same measure, in the same setting: the figure for `CCC(CC)NC1=C(NC(C)=O)C(=O)c2ccccc2C1=O` is above 50 µM; for `CS(=O)(=O)C(C#N)c1nc2ccccc2nc1Cl` (stereo unspecified) it is above 100 µM.

A further experiment concerns KM20L2 colon. Kind of experiment: NCI tumour cell line growth inhibition, 48 h.
As for `Cc1n(CC(C)C)c2c([n+]1C)C(=O)c1ccccc1C2=O`, the TGI was determined as 1.6 µM.
The compound `N#C[S-].[La+3].c1cnc2c(c1)ccc1cccnc12.c1cnc2c(c1)ccc1cccnc12.c1cnc2c(c1)ccc1cccnc12` yielded a GI50 of 0.986 µM and a TGI of 16.4 µM.
In the case of `Cc1ccc2c(ccc(/C=C/c3ccc(O)c4ncccc34)[n+]2C)c1`, the TGI turned out to be 20.1 µM.
The same measure, in the same setting: the figure for `CCC(CC)NC1=C(NC(C)=O)C(=O)c2ccccc2C1=O` is above 50 µM.

The test system of another experiment is CCRF-CEM leukemia. Kind of experiment: NCI tumour cell line growth inhibition, 48 h.
For the compound `Cc1n(CC(C)C)c2c([n+]1C)C(=O)c1ccccc1C2=O`, the TGI was determined as 27 µM.
Same read-out and setting: the figure for `CN(C)/C=C/C(=CC=[N+](C)C)/C=C/N(C)C` is above 100 µM; for `N#C[S-].[La+3].c1cnc2c(c1)ccc1cccnc12.c1cnc2c(c1)ccc1cccnc12.c1cnc2c(c1)ccc1cccnc12` it is 2.58 µM.
Compound `O=S(Cc1ccccc1)c1nc2ccccc2nc1-c1cccs1` (stereo unspecified) displayed a TGI above 100 µM.
Same read-out and setting: the figure for `Cc1ccc2c(ccc(/C=C/c3ccc(O)c4ncccc34)[n+]2C)c1` is above 70 µM; for `CCC(CC)NC1=C(NC(C)=O)C(=O)c2ccccc2C1=O` it is above 50 µM; for `CS(=O)(=O)C(C#N)c1nc2ccccc2nc1Cl` (stereo unspecified) it is above 100 µM.

In another experiment the test system is K-562 leukemia. Kind of experiment: NCI tumour cell line growth inhibition, 48 h.
The compound `Cc1n(CC(C)C)c2c([n+]1C)C(=O)c1ccccc1C2=O` registered a TGI above 100 µM.
The same measure, in the same setting: for `CN(C)/C=C/C(=CC=[N+](C)C)/C=C/N(C)C` the value was above 100 µM; for `N#C[S-].[La+3].c1cnc2c(c1)ccc1cccnc12.c1cnc2c(c1)ccc1cccnc12.c1cnc2c(c1)ccc1cccnc12`, above 100 µM; for `O=S(Cc1ccccc1)c1nc2ccccc2nc1-c1cccs1` (stereo unspecified), above 100 µM.
`Cc1ccc2c(ccc(/C=C/c3ccc(O)c4ncccc34)[n+]2C)c1` had a TGI of 83.4 µM.
In turn, `CCC(CC)NC1=C(NC(C)=O)C(=O)c2ccccc2C1=O` came in with a TGI above 50 µM.
Same read-out and setting: the figure for `CS(=O)(=O)C(C#N)c1nc2ccccc2nc1Cl` (stereo unspecified) is above 100 µM.

The next experiment relates to RXF 393 renal. Description: NCI tumour cell line growth inhibition, 48 h.
`Cc1n(CC(C)C)c2c([n+]1C)C(=O)c1ccccc1C2=O` showed a TGI of 6.19 µM.
Still for that read-out and setting: the figure for `CN(C)/C=C/C(=CC=[N+](C)C)/C=C/N(C)C` is above 100 µM; for `Cc1ccc2c(ccc(/C=C/c3ccc(O)c4ncccc34)[n+]2C)c1` it is 37.8 µM.
Same read-out and setting: for `CCC(CC)NC1=C(NC(C)=O)C(=O)c2ccccc2C1=O` the value was above 50 µM; for `CS(=O)(=O)C(C#N)c1nc2ccccc2nc1Cl` (stereo unspecified), above 100 µM.

Another experiment has as its system MOLT-4 leukemia. Kind of experiment: NCI tumour cell line growth inhibition, 48 h.
As for `Cc1n(CC(C)C)c2c([n+]1C)C(=O)c1ccccc1C2=O`, the TGI amounted to 0.955 µM.
Same read-out and setting: the figure for `CN(C)/C=C/C(=CC=[N+](C)C)/C=C/N(C)C` is above 100 µM.
Still for that read-out and setting: the figure for `N#C[S-].[La+3].c1cnc2c(c1)ccc1cccnc12.c1cnc2c(c1)ccc1cccnc12.c1cnc2c(c1)ccc1cccnc12` is 6.55 µM; for `O=S(Cc1ccccc1)c1nc2ccccc2nc1-c1cccs1` (stereo unspecified) it is above 100 µM.
On the same count and under the same terms, the figure for `Cc1ccc2c(ccc(/C=C/c3ccc(O)c4ncccc34)[n+]2C)c1` is above 82.2 µM; for `CCC(CC)NC1=C(NC(C)=O)C(=O)c2ccccc2C1=O` it is above 50 µM.
The compound `CS(=O)(=O)C(C#N)c1nc2ccccc2nc1Cl` (stereo unspecified) yielded a TGI above 100 µM.

A further experiment has as its system MCF7 breast. Description: NCI tumour cell line growth inhibition, 48 h.
Regarding `CS(=O)(=O)C(C#N)c1nc2ccccc2nc1Cl` (stereo unspecified), the TGI was above 100 µM.
